Source: US20250041252A1, “POWDERS FOR INHALATION AND PRODUCTION PROCESS THEREOF” (UNIVERSITA' DEGLI STUDI DI PARMA, priority 2021, published 2025)

Settings: about 8 mg of LANE, end of test, filter wash
Source text: The apparatus is consisting of an upper part, the donor chamber, and a lower part, the receiving chamber, held together by means of a metal clamp, but separated by a glass microfiber filter, used as a diffusion membrane, and placed horizontally in contact with the dissolution medium. The receiving chamber contains a magnetic stirrer.
The dissolution medium used for the analysis is phosphate buffered saline (PBS), prepared weighing 8 g of NaCl, 0.2 g of KCl, 1.44 g of Na2HPO4, and 0.12 g of KH2PO4 dissolved in 1 L of distilled water, with a final pH of 7.4. During the analysis, RespiCell™ was thermostated (Lauda eco silver E4, DE) at 37±0.5° C.
The receiving chamber was filled with PBS and sampled at pre-established time intervals through the side arm of the cell. Before the analysis 1 mL of the dissolution medium was applied on the filter, to get it completely wet.
To assess the not dissolved or trapped in the filter drug amount, the not dissolved residual powder was recovered washing the filter with 5 mL of a methanol:water 75:25 v/v mixture, at the end of the experiment. The drug amount in the samples was quantified by HPLC analysis.

CCN(CC)CC(=O)Nc1c(C)cccc1C [Lidocaine powder raw material, lidocaine]
Lidocaine retained on and inside the filter: 0.1 ± 0.0 mg
